These results are taken from patent US8729258B2, “Luminescent macrocyclic lanthanide complexes” (The Regents of the University of California, priority 2006, dated 2014).

Data set [1] concerns the target streptavidin (Streptomyces avidinii, UniProt P22629). Nature of the data set: Non-specific interaction with protein (streptavidin), consecutive G50 gel filtration spin columns. It counts as binding. Particulars: second and third consecutive gel filtration spin columns after conjugation of activated ester to streptavidin. The method, then:
It was therefore important to determine the tendency of the novel ligands to non-specifically interact with proteins. Sulfo-NHS ester and NHS ester derivatives of compound 5 were synthesized and conjugated to streptavidin. For comparison, the NHS ester of ligand 2 was also conjugated to streptavidin. Streptavidin was equilibrated in carbonate buffer, pH 9, at a concentration of approximately 130 μM. A DMF solution of the activated esters of each ligand was added to the protein at a final concentration of approximately 1 mM. The mixtures were allowed to incubate at 4° C. for 1 h. The metal is added either before or after conjugation of the ligand to the protein. Non-conjugated ligand was separated from conjugated protein using a G50 gel filtration centrifugal spin column technique (Penefsky, H. S, Methods Enzymol 1979, 56:527-30). This technique dilutes protein solutions to a lesser extent than conventional gel filtration techniques. Consecutive spin columns were run on a single protein sample solution to evaluate the extent of non-specific absorption of ligand. Following a single gel filtration separation, most of the excess ligand is removed and left at the top of the gel bed. A second spin column treatment should leave no further ligand at the top of the second column unless non-covalent association of the ligand with the protein occurs.

Data set [2] in a line: Kinetic stability of Tb complexes in various media at room temperature. Particulars: 5 nM Tb-complex, various media incl. 1% acetic acid and 1 mM EDTA, 0.05% Tween-80, room temperature.
Method: In order to investigate the stability of macrocyclic ligands further, the stabilities of different Tb-complexes were determined using a variety of different media, including 1% acetic acid and 1 mM EDTA. […] Each stock solution was then diluted 200× into different test solutions in polypropylene microcentrifuge tubes to a final concentration of 5 nM Tb-complex. Each test solution also contained 0.05% Tween-80. The test solutions were allowed to incubate at room temperature. Samples were taken at indicated time points, evaluated in triplicate and luminescence was recorded using standard time-resolved luminescence settings and 340 nm and 490 excitation and emission filters, respectively.

streptavidin, sequence (P22629 25-183): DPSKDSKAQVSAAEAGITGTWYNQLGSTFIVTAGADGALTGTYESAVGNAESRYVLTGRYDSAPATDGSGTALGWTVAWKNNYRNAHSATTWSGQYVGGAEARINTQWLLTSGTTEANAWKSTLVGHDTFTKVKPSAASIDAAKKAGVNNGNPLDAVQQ

As to `CNC(=O)c1cc(C(=O)NC)c(O)c(C(=O)NCCN(CCNC(=O)c2cc(C(=O)NC)cc(C(=O)NC)c2O)CCN(CCNC(=O)c2cc(C(=O)NC)cc(C(=O)NC)c2O)CCNC(=O)c2cc(C(=O)NCCC(=O)O)cc(C(=O)NC)c2O)c1` [compound 2, reference compound], in data set [1], the “residual luminescence of ligand left at the top of the gel bed” value is given as “high degree of residual luminescence”.

Regarding `NCCN1CCNC(=O)c2cccc(c2O)C(=O)NCCN(CCNC(=O)c2cccc(C(N)=O)c2O)CCN2CCNC(=O)c3cccc(c3O)C(=O)NCCN(CCNC(=O)c3cccc(c3O)C(=O)NCC2)CC1` [compound 3], the “stability of terbium complex compared to non-restrained ligand (1)” value in data set [2] is “significant increase in stability”.

For `O=C(O)CCCC(=O)NCCCCC1CN2CCNC(=O)c3cccc(c3O)C(=O)NCCN(CCNC(=O)c3cccc(c3O)C(=O)N1)CCN1CCNC(=O)c3cccc(c3O)C(=O)NCCN(CCNC(=O)c3cccc(c3O)C(=O)NCC1)CC2` (stereo not drawn) [compound 5a, GlutarLysBH(2,2)IAM], the “stability of terbium complex compared to non-restrained ligand (1)” value in data set [2] is recorded as “significant increase in stability”.
